{"source": "patent US11661439B2", "about": "“Peptide hydrogels and use thereof” (The United States of America, as represented by the …, priority 2017, dated 2023)", "key": {"[1]": {"experiment": "TEM analysis of peptide fibrils", "assay_type": "physicochemical", "details": "30 independent measurements", "method": "FIG. 4. Fibril visualization of β-hairpin peptide hydrogels. Transmission Electron Microscopy (TEM) images of peptide fibrils and frequency distributions determined from 30 independent measurements (scale bar=100 nm).\nTransmission electron microscopy (TEM) analysis. The hydrogel nanostructure of the peptide gels was observed using a Hitachi H-7650 transmission electron microscope at a voltage of 80 kV. A 1 wt % solution of peptide and an equal volume of buffer (50 mM HEPES containing 300 mM NaCl, pH 7.4) was mixed and incubated overnight at 37° C. to allow for gelation. The next day, samples for TEM analysis were prepared by suspending 5 μL of the resulting peptide gel in 195 μL of water to yield a 40-fold dilution. Small amounts (5 μL) of each diluted gel solution were applied to separate carbon coated copper grids. After 1 min, the grid was washed with water. Then, a 1 w/v % uranyl acetate aqueous solution was placed on each grid for negative staining. Excess staining solution was blotted away, left to air dry, and the grids were imaged immediately."}, "[2]": {"system": "human dermal fibroblasts (HDFs)", "experiment": "3D cell encapsulation culture of HDFs in gels", "assay_type": "cell-based", "method": "3D cell culture in peptide gels. Peptides were initially dissolved in 285 mM sucrose at 1 wt % on ice and mixed with an equal volume of cell suspension in serum-free HEPES-supplemented DMEM (2×10^6 cells mL^−1). The cell-peptide suspension (5×10^4 cells per 50 μL per insert) was transferred to a Falcon cell culture insert (for 24-well plates, 8 μm pore size, Corning) and incubated at 37° C. for 30 min for gelation. These inserts were previously coated with the empty hydrogel (30 μL per insert) to avoid cell adhesion to the bottom surface of the inserts. After gelation of cell-peptide solution, 500 μL of Essential 8 Medium were added to the top and bottom of the gels. Type I collagen gels were prepared following manufacturer's instructions. Briefly, a 0.4 wt % collagen solution was prepared on ice and mixed with cell suspension in serum-free DMEM (4×10^6 cells mL^−1) at a ratio of 3:1 (0.3 wt % collagen, 1×10^6 cells mL^−1).\nCell viability assay. Cell viability was evaluated by live and dead cell staining after 2D and 3D cell culture. Serum-free DMEM containing 1 μM calcein-AM and 2 μM ethidium homodimer-1 was added to the cells (200 μL per well for 2D culture and 500 μL each to the top and bottom of the gels for 3D culture). After incubation at 37° C. for 30 min, live and dead cells were visualized using EVOS FL Auto Cell Imaging System (Thermo Fisher Scientific). For the pseudo-colored composite image of varying heights of encapsulated cells, images of the live-stained cells were captured every 5 μm of height. Then Z-stack images for each 100 μm were flattened using the EVOS software, and the flattened images were pseudo-colored and merged using ImageJ.\nCell proliferation assay. A cell proliferation assay was performed using Cell Counting Kit-8 (CCK-8, Dojindo Molecular Technologies) for 2D and 3D cell culture. […] Subsequently, media were transferred to 96-well plates (150 μL per well) and their absorbance measured at 450 nm relative to control viabilities from day 0 for 2D cell culture and day 1 for 3D cell culture. […]"}, "[3]": {"experiment": "Rheology of cell-encapsulating gels after 4 days of 3D culture", "assay_type": "physicochemical", "details": "1000% strain for 30 s every 10 min", "text": "FIGS. 7A-7E. Three-dimensional culturing of HDFs. HDFs were 3D cultured with 0.5 wt % peptide hydrogels or 0.3 wt % collagen hydrogels with Essential 8 Medium. (7A) Live and dead cells were visualized on days 1, 4, and 7, using calcein AM and ethidium homodimer-1 staining, respectively (scale bar=100 μm). (7B) Cell growth was monitored by quantifying cell viability on days 1, 4, and 7. Data are represented as mean±SD of three independent replicates. (7C) A pseudo-colored composite of varying depths (0-500 μm) of Z-stacked images of live cells stained with calcein AM in 0.5% AcVES3-RGDV hydrogels on day 4 (scale bar=100 μm). […] (7D) Z-stack image of cytoskeleton organization in the hydrogels on day 4 with actin and nuclei (scale bar=100 μm) stained. (7E) Shear-thinned recovery of cells encapsulated in 0.5 wt % AcVES3-RGDV hydrogel after 3D culturing for 4 days. Hydrogels were shear-thinned at 1000% strain for 30 s (indicated by dashed line) every 10 min and allowed to recover by reducing the strain to 0.2%.\nRheology measurements of cell-encapsulating gels after 4 days of 3D cell culturing were performed using 8-mm stainless steel parallel plate geometry with a 0.5 mm gap height. A cell-encapsulating gel (100 μL) in a transwell insert (for 24 well plates, Corning) was transferred to the rheometer plate previously equilibrated at 37° C. and oil was placed around the sample. […]"}}, "note": "Non-standard residues stand in square brackets, D forms with d. Residues, ends and D or L forms follow the SMILES beside them."}
{"smiles": "CC(=O)N[C@H](C(=O)N[C@@H](CCC(=O)O)C(=O)N[C@H](C(=O)N[C@@H](CO)C(=O)N[C@H](C(=O)N[C@@H](CO)C(=O)N[C@H](C(=O)N[C@@H](CCC(=O)O)C(=O)N[C@H](C(=O)N1CCC[C@@H]1C(=O)N1CCC[C@H]1C(=O)N[C@H](C(=O)N[C@@H](CCC(=O)O)C(=O)N[C@H](C(=O)N[C@@H](CO)C(=O)N[C@H](C(=O)N[C@@H](CCC(=O)O)C(=O)N[C@H](C(=O)N[C@@H](CCC(=O)O)C(=O)N[C@H](C(=O)NCC(=O)NCC(=O)NCC(=O)NCC(=O)N[C@@H](CCCNC(=N)N)C(=O)NCC(=O)N[C@@H](CC(=O)O)C(=O)N[C@H](C(N)=O)C(C)C)C(C)C)C(C)C)C(C)C)C(C)C)[C@@H](C)O)C(C)C)C(C)C)C(C)C)C(C)C)C(C)C", "note": "[AcVES3-RGDV] (Ac-VEVSVSVEV[dP]PTEVSVEVEVGGGGRGDV-NH2)", "values": [{"measurement": "average fibril width", "setting": "[1]", "result": "4.0±0.4", "unit": "nm"}, {"measurement": "cell proliferation rate relative to the collagen gel", "setting": "[2]; 3D culture, Essential 8 Medium", "result": "2-3 fold"}, {"measurement": "cell proliferation of encapsulated HDFs, 3D culture", "setting": "[2]; Essential 8 Medium, one week", "result": "proliferated well with minimal cell death"}, {"measurement": "distribution of encapsulated cells in the gel", "setting": "[2]; day 4, heights 0-500 μm", "result": "homogenously distributed throughout the gel matrix"}, {"measurement": "storage moduli after multiple physical disruptions", "setting": "[3]", "result": "constant"}]}
